According to article PMC4462073 (BMC Evolutionary Biology, 2015):

Molecular target: T1, PriA_Blon (Bifidobacterium longum, UniProt Q8G4S5)
T1 sequence (Q8G4S5 1-241): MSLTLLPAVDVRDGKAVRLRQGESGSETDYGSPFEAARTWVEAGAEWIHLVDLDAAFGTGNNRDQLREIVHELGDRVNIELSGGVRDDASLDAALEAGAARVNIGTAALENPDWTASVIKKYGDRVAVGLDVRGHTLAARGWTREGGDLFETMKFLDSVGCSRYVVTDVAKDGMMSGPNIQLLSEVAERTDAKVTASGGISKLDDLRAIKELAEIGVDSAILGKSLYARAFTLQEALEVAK
Experiment: steady-state kinetics, PRA isomerase
Type: biochemical
Settings: read-out: In vitro activity^a / PRA isomerase (TrpF) / K M μM

- Km: 6.1 ± 0.1 µM
Compound: O=C(O)c1ccccc1N[C@@H]1O[C@H](COP(=O)(O)O)[C@@H](O)[C@H]1O [PRA, N’-(5′-phosphoribosyl) anthranilate]
